The compounds below were run against T1, USP8 (Homo sapiens, UniProt P40818) (assay: USP8 activity assay (Ub-AMC substrate)). Settings: Ub-AMC 300 nM, USP8 1.36 nM.
T1 construct: His (from pFastBac-HT vector) (N); made in house; host or cells: Sf9 or High Five insect cells, baculovirus
T1 sequence (P40818 1-1118): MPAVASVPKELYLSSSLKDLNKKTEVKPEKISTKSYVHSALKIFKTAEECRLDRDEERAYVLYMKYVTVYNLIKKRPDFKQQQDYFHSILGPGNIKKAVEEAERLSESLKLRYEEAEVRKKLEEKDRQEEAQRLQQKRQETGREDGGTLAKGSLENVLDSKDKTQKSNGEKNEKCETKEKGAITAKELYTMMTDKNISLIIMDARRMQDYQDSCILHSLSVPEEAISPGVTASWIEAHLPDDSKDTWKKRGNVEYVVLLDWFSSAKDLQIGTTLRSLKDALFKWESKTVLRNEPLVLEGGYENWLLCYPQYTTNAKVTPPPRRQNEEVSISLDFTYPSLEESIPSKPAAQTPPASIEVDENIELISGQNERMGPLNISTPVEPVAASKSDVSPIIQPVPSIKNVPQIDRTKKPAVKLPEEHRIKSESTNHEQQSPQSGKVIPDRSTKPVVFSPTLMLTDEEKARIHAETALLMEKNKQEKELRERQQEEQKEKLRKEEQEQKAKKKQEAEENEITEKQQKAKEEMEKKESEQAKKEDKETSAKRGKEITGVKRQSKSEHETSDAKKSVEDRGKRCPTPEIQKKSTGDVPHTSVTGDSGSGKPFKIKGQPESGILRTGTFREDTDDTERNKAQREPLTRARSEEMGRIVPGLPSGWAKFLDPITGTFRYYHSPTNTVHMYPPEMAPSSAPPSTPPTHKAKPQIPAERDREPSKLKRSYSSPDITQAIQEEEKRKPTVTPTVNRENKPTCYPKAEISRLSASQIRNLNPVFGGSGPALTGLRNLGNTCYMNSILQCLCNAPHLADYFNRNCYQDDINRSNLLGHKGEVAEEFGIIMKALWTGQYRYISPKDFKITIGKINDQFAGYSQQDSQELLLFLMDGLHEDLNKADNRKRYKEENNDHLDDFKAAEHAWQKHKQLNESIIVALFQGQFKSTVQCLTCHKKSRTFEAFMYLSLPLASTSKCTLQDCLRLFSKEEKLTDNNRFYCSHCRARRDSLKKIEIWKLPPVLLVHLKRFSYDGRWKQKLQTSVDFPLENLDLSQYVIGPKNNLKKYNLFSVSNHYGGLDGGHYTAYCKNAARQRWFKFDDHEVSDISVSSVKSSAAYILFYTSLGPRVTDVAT
Format: biochemical
Excerpt: The cDNA encoding USP8 was obtained by PCR amplification from placenta mRNA. USP8 cDNA was subcloned by PCR into a baculovirus expression vector (pFastBac-HT; Invitrogen). A cDNA encoding a mutated USP8 was generated by mutagenic PCR. The corresponding protein encodes a cysteine to alanine substitution at residue 786. The sequences were ascertained by sequencing of the entire open reading frame. Bacmids encoding USP8 were generated following DH10bac transposition. The corresponding bacmids were transfected into insect cells (Sf9). Viruses were recovered from culture supernatant and amplified twice. Insect cells (Sf9 or High Five; Invitrogen) were infected for 72 hours. Total cell lysates were harvested and lyzed in lysis buffer (Tris HCl 50 mM pH7.6; 0.75% NP40; 500 mM NaCl; 10% glycerol; 1 mM DTT; 10 mM imidazole; Protease Inhibitor Cocktail; AEBSF 20 μg·ml^−1; Aprotinin 10 μg·ml^−1). Proteins were affinity purified on metal affinity resins (Talon Metal affinity resin; BD Biosciences). Bound materials were extensively washed in wash buffer (50 mM Sodium Phosphate pH 7.0; 300 mM NaCl; 10 mM imidazole; 0.5% Triton X-100; 10% glycerol) and eluted from the resin in 250 mM imidazole-containing wash buffer. Proteins were dialyzed in dialysis buffer (Tris HCl pH 7.6 20 mM; NaCl 200 mM; DTT 1 mM; EDTA 1 mM; 10% Glycerol). Proteins purifications were analyzed on 4-12% NuPAGE (Invitrogen).
USP8 was diluted in USP buffer (50 mM Tris HCl; 0.5 mM EDTA; 5 mM DTT; 0.01% Triton X-100; Bovine Serum Albumin 0.05 mg·ml^−1 pH8.8). Compounds stocks (100 mM) were stored at −20° C. in DMSO. Compounds were tested at different concentrations: from 200 μM to 91 nM.
Reactions were performed as duplicates in Black 384 well plates (small volume microplates; Greiner; 10 μl final reaction volume). The substrate concentration for USP8 was 300 nM Ub-AMC (Boston Biochem). The concentration of the enzyme (USP8) in specificity assays was 1.36 nM. The concentrations were determined in order to perform specificity assays under initial velocities at fixed substrate concentration. Compounds were pre-incubated with enzymes for 30 minutes at 25° C. Reactions were initiated by addition of substrate to the plates containing the enzymes (+/− compounds) diluted in assay buffer. Reactions were incubated for 60 minutes at 37° C. Reactions were stopped by adding acetic acid (100 mM final). Readings were performed on a Pherastar Fluorescent Reader (BMG). λ Emission 380 nm: λ Excitation=460 nm. Data (mean values +/− standard deviation) were analyzed as % of control (no compound) and plotted as percentage versus the Log of the compound concentration using GraphPad (Prism). Data were fitted to a sigmoidal model (variable slope).

SMILES	IC50 [µM]
O=C(NCC(CN1CCCC1)C(O)c1ccccc1)c1ccc2c(Cl)c3c(nc2c1)CCCC3 (stereo not drawn) [Example 25, 9-chloro-N-(3-hydroxy-3-phenyl-2-pyrrolidin-1-ylmethylpropyl)-5,6,7,8-tetrahydroacridine-3-carboxamide]	> 200
O=C(NCC1CCNCC1)c1ccc2c(Cl)c3c(nc2c1)CCCC3 [Example 24, 9-chloro-N-((piperidin-4-yl)methyl)-5,6,7,8-tetrahydroacridine-3-carboxamide]	~200
CN1CCCC1CCNC(=O)c1ccc2c(Cl)c3c(nc2c1)CCCC3 (stereo not drawn) [Example 17, 9-chloro-N-(2-(1-methylpyrrolidin-2-yl)ethyl)-5,6,7,8-tetrahydroacridino-3-carboxamide]	> 200
CC1CCCCN1CCCNC(=O)c1ccc2c(Cl)c3c(nc2c1)CCCC3 (stereo not drawn) [Example 20, 9-chloro-N-(3-(2-methylpiperidin-1-yl)propyl)-516,7,8-tetrahydroacridine-3-carboxamide]	> 200

The next lines start with the values.

IC50 [µM]	SMILES
> 200	O=C(NCc1cccc(CN2CCCC2)c1)c1ccc2c(Cl)c3c(nc2c1)CCCC3 [Example 18, 9-chloro-N-(3-(pyrrolidin-1-ylmethyl)benzyl)-5,6,7,8-tetrahydroacridine-3-carboxamide]
> 200	O=C(Nc1cccc(CN2CCCC2)c1)c1ccc2c(Cl)c3c(nc2c1)CCCC3 [Example 19, 9-chloro-N-(3-(pyrrolidin-1-ylmethyl)phenyl)-5.6,7,8-tetrahydroacridine-3-carboxamide]
> 200	CN(C)c1ccc(CN2CCC(CNC(=O)c3ccc4c(Cl)c5c(nc4c3)CCCC5)CC2)cc1 [Example 23]
> 200	O=C(NCc1ccc(CN2CCCC2)cc1)c1ccc2c(Cl)c3c(nc2c1)CCCC3 [Example 21, 9-chloro-N-(4-(pyrrolidin-1-ylmethyl)benzyl)-5,6,7,8-tetrahydroacridine-3-carboxamide]
> 200	COc1ccc(CN2CCC(CNC(=O)c3ccc4c(Cl)c5c(nc4c3)CCCC5)CC2)cc1 [Example 22, 9-chloro-N-((1-(4-methoxybenzyl)piperidin-4-yl)methyl)-5,6,7,8-tetrahydroacridine-3-carboxamide]

— patent publication US9328093B2, “Selective inhibitors of ubiquitin specific protease 7, the pharmaceutical compositions thereof and their therapeutic applications” (HYBRIGENICS SA, priority 2010, dated 2016)
